From ChEMBL document CHEMBL4138146, “A Schmidt rearrangement-mediated synthesis of novel tetrahydro-benzo[1,4]diazepin-5-ones as potential anticancer and antiprotozoal agents” (Eur J Med Chem, 2017)

Assays:
Assay type in all cases: functional
Malme-3M = test: Growth inhibition of human MALME-3M cells incubated for 48 hrs by sulforhodamine B assay
SF-268 = test: Growth inhibition of human SF268 cells incubated for 48 hrs by sulforhodamine B assay; conditions: SF-268, 48 h
NCI/ADR-RES = test: Growth inhibition of human NCI/ADR-RES cells incubated for 48 hrs by sulforhodamine B assay; conditions: for CC50: read-out: LC50 (the source's name)
LOX IMVI = test: Growth inhibition of human LOXIMVI cells incubated for 48 hrs by sulforhodamine B assay
U-251 = test: Growth inhibition of human U251 cells incubated for 48 hrs by sulforhodamine B assay; conditions: U-251, 48 h
RPMI-8226 [1] = test: Growth inhibition of human RPMI8226 cells incubated for 48 hrs by sulforhodamine B assay; conditions: RPMI-8226, 48 h; for CC50: read-out: LC50 (the source's name)
SR = test: Growth inhibition of human SR cells incubated for 48 hrs by sulforhodamine B assay
SK-OV-3 = test: Growth inhibition of human SKOV3 cells incubated for 48 hrs by sulforhodamine B assay; conditions: SK-OV-3, 48 h; for CC50: read-out: LC50 (the source's name)
SNB-75 = test: Growth inhibition of human SNB75 cells incubated for 48 hrs by sulforhodamine B assay; conditions: SNB-75, 48 h; for CC50: read-out: LC50 (the source's name)
MDA-MB-435 = test: Growth inhibition of human MDA-MB-435 cells incubated for 48 hrs by sulforhodamine B assay; conditions: MDA-MB-435, 48 h
MCF7 = test: Growth inhibition of human MCF7 cells incubated for 48 hrs by sulforhodamine B assay; conditions: MCF7, 48 h
RXF 393 [2] = test: Growth inhibition of human RXF393 cells incubated for 48 hrs by sulforhodamine B assay; conditions: RXF 393, 48 h
HOP-92 [3] = test: Growth inhibition of human HOP92 cells incubated for 48 hrs by sulforhodamine B assay; conditions: HOP-92, 48 h
HCT-15 = test: Growth inhibition of human HCT15 cells incubated for 48 hrs by sulforhodamine B assay; conditions: HCT-15, 48 h; for CC50: read-out: LC50 (the source's name)
UO-31 = test: Growth inhibition of human UO31 cells incubated for 48 hrs by sulforhodamine B assay; conditions: UO-31, 48 h
HT-29 = test: Growth inhibition of human HT-29 cells incubated for 48 hrs by sulforhodamine B assay; conditions: HT-29, 48 h
M14 [4] = test: Growth inhibition of human M14 cells incubated for 48 hrs by sulforhodamine B assay; conditions: M14, 48 h
OVCAR-8 = test: Growth inhibition of human OVCAR8 cells incubated for 48 hrs by sulforhodamine B assay; conditions: OVCAR-8, 48 h
IGROV-1 = test: Growth inhibition of human IGROV1 cells incubated for 48 hrs by sulforhodamine B assay; conditions: IGROV-1, 48 h; for CC50: read-out: LC50 (the source's name)
T47D = test: Growth inhibition of human T47D cells incubated for 48 hrs by sulforhodamine B assay
RPMI-8226 [5] = test: Growth inhibition of human RPMI8226 cells assessed as cell growth at 10^-4 M incubated for 48 hrs by sulforhodamine B assay relative to control; conditions: RPMI-8226, 48 h, read-out: Activity
NCI-H460 = test: Growth inhibition of human NCI-H460 cells assessed as cell growth at 10^-7 M incubated for 48 hrs by sulforhodamine B assay relative to control; conditions: NCI-H460, 48 h, read-out: Activity
Hs-578T = test: Growth inhibition of human Hs 578T cells assessed as cell growth at 10^-4 M incubated for 48 hrs by sulforhodamine B assay relative to control; conditions: read-out: Activity
SF-295 [6] = test: Growth inhibition of human SF295 cells assessed as cell growth at 10^-4 M incubated for 48 hrs by sulforhodamine B assay relative to control; conditions: SF-295, 48 h, read-out: Activity
786-0 = test: Growth inhibition of human 786-0 cells assessed as cell growth at 10^-4 M incubated for 48 hrs by sulforhodamine B assay relative to control; conditions: 786-0, 48 h, read-out: Activity
MDA-MB-468 = test: Growth inhibition of human MDA-MB-468 cells assessed as cell growth at 10^-5 M incubated for 48 hrs by sulforhodamine B assay relative to control; conditions: MDA-MB-468, 48 h, read-out: Activity
NCI-H522 = test: Growth inhibition of human NCI-H522 cells assessed as cell growth at 10^-4 M incubated for 48 hrs by sulforhodamine B assay relative to control; conditions: NCI-H522, 48 h, read-out: Activity
SF-295 [7] = test: Growth inhibition of human SF295 cells assessed as cell growth at 10^-8 M incubated for 48 hrs by sulforhodamine B assay relative to control; conditions: SF-295, 48 h, read-out: Activity
OVCAR-3 = test: Growth inhibition of human OVCAR3 cells assessed as cell growth at 10^-5 M incubated for 48 hrs by sulforhodamine B assay relative to control; conditions: OVCAR-3, 48 h, read-out: Activity
HCC 2998 = test: Growth inhibition of human HCC2998 cells assessed as cell growth at 10^-5 M incubated for 48 hrs by sulforhodamine B assay relative to control; conditions: HCC 2998, 48 h, read-out: Activity
OVCAR-5 = test: Growth inhibition of human OVCAR5 cells assessed as cell growth at 10^-7 M incubated for 48 hrs by sulforhodamine B assay relative to control; conditions: OVCAR-5, 48 h, read-out: Activity
RXF 393 [8] = test: Growth inhibition of human RXF393 cells assessed as cell growth at 10^-4 M incubated for 48 hrs by sulforhodamine B assay relative to control; conditions: RXF 393, 48 h, read-out: Activity
HOP-92 [9] = test: Growth inhibition of human HOP92 cells assessed as cell growth at 10^-5 M incubated for 48 hrs by sulforhodamine B assay relative to control; conditions: HOP-92, 48 h, read-out: Activity
HL-60(TB) = test: Growth inhibition of human HL-60(TB) cells assessed as cell growth at 10^-7 M incubated for 48 hrs by sulforhodamine B assay relative to control; conditions: HL-60, 48 h, read-out: Activity
M14 [10] = test: Growth inhibition of human M14 cells assessed as cell growth at 10^-4 M incubated for 48 hrs by sulforhodamine B assay relative to control; conditions: M14, 48 h, read-out: Activity
[11] = read-out: LC50 (the source's name)

## COc1cccc2c1C(=O)c1c(O)c3c(c(O)c1C2=O)C[C@@](O)(C(=O)CO)C[C@@H]3O[C@H]1C[C@H](N)[C@H](O)[C@H](C)O1 [DOXORUBICIN]
Malme-3M
  GI50: 0.12 µM
SF-268
  GI50: 0.1 µM
NCI/ADR-RES
  CC50: 100 µM
LOX IMVI
  GI50: 0.07 µM
U-251
  GI50: 0.04 µM
RPMI-8226 [1]
  GI50: 0.08 µM
  CC50: 100 µM
SR
  GI50: 0.03 µM
SK-OV-3
  GI50: 0.22 µM
  CC50: 100 µM
SNB-75
  GI50: 0.07 µM
  CC50: 3.3 µM
MDA-MB-435
  GI50: 0.25 µM
MCF7
  GI50: 0.04 µM
RXF 393 [2]
  GI50: 0.1 µM
HOP-92 [3]
  GI50: 0.1 µM
HCT-15
  CC50: 100 µM
UO-31
  GI50: 0.49 µM
HT-29
  GI50: 0.12 µM
M14 [4]
  GI50: 0.18 µM
OVCAR-8
  GI50: 0.1 µM
IGROV-1
  GI50: 0.17 µM
  CC50: 100 µM
T47D
  GI50: 0.06 µM

## CCCCOc1nc2ccccc2cc1C1CNC(=O)c2ccccc2N1 (centres undefined)
Malme-3M
  GI50: 3.58 µM
  TGI: 27 µM
Malme-3M; [11]
  CC50: 92 µM
SF-268
  GI50: 4.14 µM
  TGI: > 100 µM
SF-268; [11]
  CC50: > 100 µM
NCI/ADR-RES
  GI50: 1.74 µM
  TGI: 6.7 µM
  CC50: 97 µM
RPMI-8226 [5]
  growth at 100 µM: -14%
LOX IMVI
  GI50: 2.9 µM
  TGI: 14.4 µM
LOX IMVI; [11]
  CC50: 47.3 µM
U-251
  GI50: 3.03 µM
  TGI: 13.7 µM
U-251; [11]
  CC50: 50.1 µM
RPMI-8226 [1]
  GI50: 2.86 µM
  TGI: 25.1 µM
  CC50: > 100 µM
NCI-H460
  growth at 0.1 µM: 102%
Hs-578T
  growth at 100 µM: -25%
SR
  GI50: 1.26 µM
  LC50: > 100 µM
  TGI: 10.7 µM
SK-OV-3
  GI50: 2.38 µM
  TGI: 9.96 µM
  CC50: > 100 µM
SF-295 [6]
  growth at 100 µM: -69%
SNB-75
  GI50: 1.81 µM
  TGI: 13.7 µM
  CC50: 48.3 µM
MDA-MB-435
  GI50: 0.34 µM
  TGI: 1.33 µM
MDA-MB-435; [11]
  CC50: 7.6 µM
MCF7
  GI50: 1.73 µM
  TGI: 16.1 µM
MCF7; [11]
  CC50: > 100 µM
RXF 393 [2]
  GI50: 2.5 µM
  TGI: 12.1 µM
RXF 393 [2]; [11]
  CC50: 75.4 µM
786-0
  growth at 100 µM: -76%
HOP-92 [3]
  GI50: 1.92 µM
  TGI: 22.6 µM
HOP-92 [3]; [11]
  CC50: > 100 µM
MDA-MB-468
  growth at 10 µM: -10%
NCI-H522
  growth at 100 µM: -35%
HCT-15
  GI50: 1.92 µM
  TGI: 10.8 µM
  CC50: 48.6 µM
SF-295 [7]
  growth at 0.01 µM: 84%
OVCAR-3
  growth at 10 µM: -53%
UO-31
  GI50: 2.41 µM
  TGI: 20.9 µM
UO-31; [11]
  CC50: 67.2 µM
HCC 2998
  growth at 10 µM: 15%
HT-29
  GI50: 3.21 µM
  TGI: 11.1 µM
HT-29; [11]
  CC50: 67.7 µM
OVCAR-5
  growth at 0.1 µM: 102%
RXF 393 [8]
  growth at 100 µM: -58%
M14 [4]
  GI50: 1.54 µM
  TGI: 11.8 µM
M14 [4]; [11]
  CC50: 92.2 µM
HOP-92 [9]
  growth at 10 µM: 21%
HL-60(TB)
  growth at 0.1 µM: 26%
OVCAR-8
  GI50: 3.45 µM
  TGI: 16.1 µM
OVCAR-8; [11]
  CC50: > 100 µM
M14 [10]
  growth at 100 µM: -52%
IGROV-1
  GI50: 4.49 µM
  TGI: 23.9 µM
  CC50: 98.5 µM
T47D
  GI50: 5.32 µM
  TGI: > 100 µM
T47D; [11]
  CC50: > 100 µM
